Tests used:
Assay type in all cases: cell-based
[1] = test system: E. coli; experiment: resazurin-based MIC/MBC screen of the TAPILs
Source text: (§1) The MIC evaluation of the three TAPILs is shown with E. coli (a) and S. aureus (b) as the microorganism under study, using resazurin as an indicator of bacterial viability. The numbers on the right correspond to the TAPILs—i.e. “1” stands for TAPIL-1. The MIC and MBC values (c) are shown for the three TAPILs deployed against E. coli and S. aureus as representative microorganisms.
(§2) The three TAPILs were screened against E. coli and S. aureus according to standard procedures (FIG. 2). The bacteria were selected as they are the representative strains (gram negative and positive, respectively) used for European Union regulations in the evaluation of disinfectants. A standard resazurin-based assay was employed: A blue well indicates non-viable bacteria, while a pink one indicates bacterial viability. The MIC and the MBC values are summarized.

[2] = test system: S. aureus; experiment: resazurin-based MIC/MBC screen of the TAPILs; conditions: resazurin assay
Source text: as §1, §2

[3] = MIC/MBC of TAPIL-2 monitored upon ambient storage open to the atmosphere; conditions: 3 weeks ambient storage open to the atmosphere
Source text: The presence of one longer alkyl chain on the central phosphorus is believed to be preferred for anti-microbial activity since symmetrical TAPILs with four identical alkyl substituents around the phosphorus atom are likely to interact less strongly with the cell membrane to induce cell death. The MIC/MBC values of TAPIL-2 were monitored over a period of 3 weeks upon ambient storage open to the atmosphere. No change in its antimicrobial activity was detected.

## CCCCCCCCCCCCCC[P+](CCCCCC)(CCCCCC)CCCCCC.[Cl-] [TAPIL-1]
[1]; resazurin assay
  antibacterial properties (in words): bacteriostatic properties at intermediate concentrations
[2]
  antibacterial properties (in words): bacteriostatic properties at intermediate concentrations

## CCCCCCCCCCCCCC[P+](CCCCCC)(CCCCCC)CCCCCC.O=S(=O)([N-]S(=O)(=O)C(F)(F)F)C(F)(F)F [TAPIL-3]
[1]; resazurin assay
  concentration up to which no anti-bacterial effects are shown (MIC/MBC): > 2000 µg/mL
[2]
  concentration up to which no anti-bacterial effects are shown (MIC/MBC): > 2000 µg/mL

## CCCCCCCC[P+](CCCCCC)(CCCCCC)CCCCCC.[Cl-] [TAPIL-2]
[1]
  Minimum Bactericidal Concentration (MBC): < 65 µg/mL
[3]
  change in antimicrobial activity (MIC/MBC values): No change

Reference: patent US20240389599A1, “Antimicrobial Material Comprising a Tetraalkylphosphonium Ionic Liquid and Metal Nanoparticles” (University of Windsor, priority 2023, published 2024)
